Source: ChEMBL document CHEMBL5126500, “Small-molecule inhibitors of breast cancer-related targets: Potential therapeutic agents for breast cancer” (Eur J Med Chem, 2021)
One block for each molecule: values may come before it.

Legend:
[1] = biological target: T1, Bromodomain-containing protein 4 (Homo sapiens, UniProt O60885); assay: Inhibition of BRD4 BD1 (unknown origin)
[2] = biological target: T1, Bromodomain-containing protein 4; assay: Inhibition of BRD4 BD2 (unknown origin)
Histone deacetylase 8 = biological target: T2, Histone deacetylase 8 (Homo sapiens, UniProt Q9BY41); assay: Inhibition of human recombinant HDAC8 using BML-KI178-0005 as substrate incubated for 10 mins by fluorescence based assay
T2 sequence (Q9BY41 whole entry): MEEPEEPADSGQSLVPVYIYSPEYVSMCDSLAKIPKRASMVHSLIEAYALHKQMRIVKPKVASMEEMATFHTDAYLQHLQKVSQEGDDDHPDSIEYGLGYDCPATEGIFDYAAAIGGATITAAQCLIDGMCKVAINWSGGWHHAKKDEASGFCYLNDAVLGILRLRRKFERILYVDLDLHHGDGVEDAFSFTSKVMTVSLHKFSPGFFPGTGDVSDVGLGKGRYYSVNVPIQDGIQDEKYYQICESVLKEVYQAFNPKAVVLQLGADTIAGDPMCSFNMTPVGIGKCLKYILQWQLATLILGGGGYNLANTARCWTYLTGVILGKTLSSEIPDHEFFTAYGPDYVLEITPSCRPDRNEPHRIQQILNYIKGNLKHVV

CDK6/cyclin D3 = CDK6/cyclin D3 (Homo sapiens, UniProt Q00534); assay: Binding affinity to CDK6/Cyclin D3 (unknown origin) assessed as inhibition constant by radiometric assay; type: protein-complex assay
Chain of CDK6/cyclin D3 (P30281 whole entry): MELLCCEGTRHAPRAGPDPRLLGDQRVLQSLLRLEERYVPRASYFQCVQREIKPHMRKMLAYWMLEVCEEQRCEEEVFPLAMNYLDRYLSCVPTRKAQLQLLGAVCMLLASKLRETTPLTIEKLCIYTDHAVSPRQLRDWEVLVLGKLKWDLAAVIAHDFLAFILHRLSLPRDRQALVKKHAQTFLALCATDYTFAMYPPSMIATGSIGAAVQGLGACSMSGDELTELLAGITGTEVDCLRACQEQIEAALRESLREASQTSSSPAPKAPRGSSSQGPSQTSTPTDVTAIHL
Chain of CDK6/cyclin D3 (Q00534 whole entry): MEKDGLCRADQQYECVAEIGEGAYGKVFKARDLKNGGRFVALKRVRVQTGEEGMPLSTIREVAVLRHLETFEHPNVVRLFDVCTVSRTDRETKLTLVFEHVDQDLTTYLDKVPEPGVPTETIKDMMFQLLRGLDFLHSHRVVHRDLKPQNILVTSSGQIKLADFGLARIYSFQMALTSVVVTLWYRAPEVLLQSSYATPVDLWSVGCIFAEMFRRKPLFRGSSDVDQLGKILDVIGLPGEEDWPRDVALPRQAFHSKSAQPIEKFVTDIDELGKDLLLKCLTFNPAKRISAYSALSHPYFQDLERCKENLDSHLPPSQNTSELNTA

[3] = biological target: T3, Poly [ADP-ribose] polymerase 1 (Homo sapiens, UniProt P09874); assay: Inhibition of PARP1 (unknown origin) incubated for 1 hr by colorimetry
T3 sequence (P09874 whole entry): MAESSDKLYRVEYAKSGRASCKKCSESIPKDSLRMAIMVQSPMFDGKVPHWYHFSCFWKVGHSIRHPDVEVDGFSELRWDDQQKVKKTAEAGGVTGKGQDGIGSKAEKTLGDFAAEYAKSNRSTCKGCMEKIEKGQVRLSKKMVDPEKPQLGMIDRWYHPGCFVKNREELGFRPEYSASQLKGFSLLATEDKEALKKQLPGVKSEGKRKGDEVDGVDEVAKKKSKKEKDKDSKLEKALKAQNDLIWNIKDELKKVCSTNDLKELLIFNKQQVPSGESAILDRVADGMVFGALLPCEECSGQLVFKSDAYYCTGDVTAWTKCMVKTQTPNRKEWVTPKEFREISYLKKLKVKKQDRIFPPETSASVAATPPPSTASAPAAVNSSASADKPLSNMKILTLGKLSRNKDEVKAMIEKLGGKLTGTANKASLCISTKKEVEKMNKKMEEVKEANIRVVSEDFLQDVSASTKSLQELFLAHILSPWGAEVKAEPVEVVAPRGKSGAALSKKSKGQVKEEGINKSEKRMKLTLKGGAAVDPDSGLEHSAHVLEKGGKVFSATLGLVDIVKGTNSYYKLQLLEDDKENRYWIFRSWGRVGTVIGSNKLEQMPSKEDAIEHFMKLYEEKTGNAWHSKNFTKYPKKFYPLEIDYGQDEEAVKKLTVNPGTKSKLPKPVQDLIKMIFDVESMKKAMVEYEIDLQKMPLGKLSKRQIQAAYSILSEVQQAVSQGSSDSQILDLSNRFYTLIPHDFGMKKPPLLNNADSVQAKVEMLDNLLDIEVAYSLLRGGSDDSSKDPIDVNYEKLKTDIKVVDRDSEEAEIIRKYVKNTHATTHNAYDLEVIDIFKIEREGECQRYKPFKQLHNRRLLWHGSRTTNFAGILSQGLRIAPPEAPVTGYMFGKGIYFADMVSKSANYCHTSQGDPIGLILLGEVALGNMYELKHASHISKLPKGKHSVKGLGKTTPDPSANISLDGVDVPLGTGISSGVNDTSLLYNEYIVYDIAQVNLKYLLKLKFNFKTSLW

[4] = biological target: T3, Poly [ADP-ribose] polymerase 1; assay: Inhibition of PARP1 (unknown origin) using NAD+ as substrate incubated for 30 mins by fluorescence based assay
MDA-MB-436 = assay: Antiproliferative activity against BRCA1 deficient human MDA-MB-436 cells assessed as reduction in cell viability incubated for 96 hrs by MTT assay; type: functional, cell-based; details: MDA-MB-436, 96 h
[5] = biological target: Serine/threonine-protein kinase PLK1 (Homo sapiens, UniProt P53350); assay: Inhibition of PLK1-PBD (unknown origin) using FITC-GPMQSpTPLNG-OH as substrate incubated for 30 mins by fluorescence polarization assay
Chain of Serine/threonine-protein kinase PLK1 (P53350 whole entry): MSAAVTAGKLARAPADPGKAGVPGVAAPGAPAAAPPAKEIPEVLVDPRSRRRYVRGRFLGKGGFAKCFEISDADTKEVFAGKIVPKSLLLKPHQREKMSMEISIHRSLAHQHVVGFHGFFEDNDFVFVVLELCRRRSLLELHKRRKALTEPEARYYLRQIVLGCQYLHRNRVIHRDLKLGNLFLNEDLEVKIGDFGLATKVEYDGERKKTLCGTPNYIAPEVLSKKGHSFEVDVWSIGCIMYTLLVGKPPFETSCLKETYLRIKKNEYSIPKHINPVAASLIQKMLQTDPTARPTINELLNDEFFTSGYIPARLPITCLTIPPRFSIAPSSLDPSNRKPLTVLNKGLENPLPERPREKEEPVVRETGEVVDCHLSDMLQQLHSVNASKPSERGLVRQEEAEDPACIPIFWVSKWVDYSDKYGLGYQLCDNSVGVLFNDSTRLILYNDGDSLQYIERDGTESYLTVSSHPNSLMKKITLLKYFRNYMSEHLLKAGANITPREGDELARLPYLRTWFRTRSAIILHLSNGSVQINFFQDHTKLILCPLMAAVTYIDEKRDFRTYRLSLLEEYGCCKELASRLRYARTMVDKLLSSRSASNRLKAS

MX1 = assay: Cytotoxicity against human MX1 cells assessed as cell survival incubated for 72 hrs by MTT assay; type: functional, cell-based; details: MX1, 72 h

Structure (SMILES): C#CCSc1nc2nc(C)cc(Nc3cc(-c4ccccc4)[nH]n3)n2n1
- IC50 [1]: 2150 nM
- IC50 [2]: 4360 nM

Structure (SMILES): CC(c1nc2c(C(N)=O)cccc2[nH]1)N1CC(=O)N(c2ccc(C(F)(F)F)cc2)C1=S (centres undefined)
- IC50 [4]: 25 nM
- IC50 (MDA-MB-436): 1000 nM

Structure (SMILES): CC(C)N1CCC(NC(=O)c2cc(Cn3c(=O)[nH]c(=O)c4ccccc43)ccc2F)C1 (centres undefined)
- IC50 (MX1): < 3120 nM

Further lines, results first:

- IC50 (Histone deacetylase 8): 1740 nM
Structure (SMILES): O=C(CCN1CCN(C(=O)Nc2ccnc3ccccc23)CC1)NO

- Ki (CDK6/cyclin D3): 13.4 nM
Structure (SMILES): CC(=O)N1N=C(c2c(O)c3ccccc3oc2=O)CC1c1ccccc1Cl (centres undefined)

- IC50 [3]: 36 nM
Structure (SMILES): O=C(c1ccc(Cc2n[nH]c(=O)c3cccnc23)cc1)n1cccc1

- IC50 [5]: 3370 nM
Structure (SMILES): O=C(CCNC(=O)c1ccc(CO)cc1)N[C@@H](Cc1cnnn1CCc1ccccc1)C(=O)NCc1cn(CCP(=O)(O)O)nn1
